The source of these data is PMC12136037, “Type II kinase inhibitors that target Parkinson’s disease–associated LRRK2” (Science Advances, 2025).

The structures appear in SMILES notation.

Assay in all cases: DSF 100 kinase selectivity screen;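 further: compound tested at 20 µM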
Format in all cases: binding

In experiment [1] the target is T1, ~100 representative kinases (Homo sapiens, UniProt Q13557).
T1 construct: Recombinant protein kinase domains with a concentration of 2 μM
The settings on record: Protein CAMK2D; average of three replicates. In a few lines: (§1)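 Each kinase domain, at 2 μM, is mixed with 20 μM test compound and SYPRO Orange in Hepes (20 mM, pH 7.5) with 500 mM NaCl. Temperature is then raised at 3°C/min and fluorescence-monitored unfolding yields the melting temperature change, ΔTm in degrees Celsius.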

Experiment [2] addresses T2, ~100 representative kinases (Homo sapiens, UniProt O94768).
T2 construct: Recombinant protein kinase domains with a concentration of 2 μM
T2 sequence (O94768 1-372): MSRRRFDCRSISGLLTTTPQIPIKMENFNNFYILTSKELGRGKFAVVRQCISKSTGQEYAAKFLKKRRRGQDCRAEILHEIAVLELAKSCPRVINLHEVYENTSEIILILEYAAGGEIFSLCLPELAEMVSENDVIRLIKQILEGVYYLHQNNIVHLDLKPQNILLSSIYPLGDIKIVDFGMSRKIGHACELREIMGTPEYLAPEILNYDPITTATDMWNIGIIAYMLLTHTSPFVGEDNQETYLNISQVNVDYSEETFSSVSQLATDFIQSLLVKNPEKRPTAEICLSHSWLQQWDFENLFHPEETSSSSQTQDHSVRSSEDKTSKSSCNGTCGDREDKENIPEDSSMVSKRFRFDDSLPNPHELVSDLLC
The note with it: Protein STK17B; DSF; average of three replicates. In a few lines: as §1

The target in experiment [3] is T3, ~100 representative kinases (Homo sapiens, UniProt P53779).
T3 construct: Recombinant protein kinase domains with a concentration of 2 μM
The note with it: protein MAPK10; average of three replicates. In short, it runs like this: as §1

Experiment [4] concerns the target T4, ~100 representative kinases (Homo sapiens, UniProt O15075).
T4 construct: Recombinant protein kinase domains with a concentration of 2 μM
The note with it: Protein DCAMKL1; average of three replicates. In short, it runs like this:
as §1

Experiment [5] deals with T5, ~100 representative kinases (Homo sapiens, UniProt O43293).
T5 construct: Recombinant protein kinase domains with a concentration of 2 μM
The note with it: Protein DAPK3; average of three replicates. In a few lines:
as §1

In experiment [6] the target is T6, ~100 representative kinases (Homo sapiens, UniProt P45984).
T6 construct: Recombinant protein kinase domains with a concentration of 2 μM
The settings on record: protein MAPK9; average of three replicates. In a few lines:
as §1

The target of experiment [7] is T7, ~100 representative kinases (Homo sapiens, UniProt O94804).
T7 construct: Recombinant protein kinase domains with a concentration of 2 μM
The note with it: Protein STK10; DSF; average of three replicates. In short, it runs like this: as §1

The target in experiment [8] is T8, ~100 representative kinases (Homo sapiens, UniProt Q14680).
T8 construct: Recombinant protein kinase domains with a concentration of 2 μM
The note with it: protein MELK; average of three replicates. In short, it runs like this: as §1

Experiment [9] has as its target T9, ~100 representative kinases (Homo sapiens, UniProt Q8TF76).
T9 construct: Recombinant protein kinase domains with a concentration of 2 μM
T9 sequence (Q8TF76 1-798): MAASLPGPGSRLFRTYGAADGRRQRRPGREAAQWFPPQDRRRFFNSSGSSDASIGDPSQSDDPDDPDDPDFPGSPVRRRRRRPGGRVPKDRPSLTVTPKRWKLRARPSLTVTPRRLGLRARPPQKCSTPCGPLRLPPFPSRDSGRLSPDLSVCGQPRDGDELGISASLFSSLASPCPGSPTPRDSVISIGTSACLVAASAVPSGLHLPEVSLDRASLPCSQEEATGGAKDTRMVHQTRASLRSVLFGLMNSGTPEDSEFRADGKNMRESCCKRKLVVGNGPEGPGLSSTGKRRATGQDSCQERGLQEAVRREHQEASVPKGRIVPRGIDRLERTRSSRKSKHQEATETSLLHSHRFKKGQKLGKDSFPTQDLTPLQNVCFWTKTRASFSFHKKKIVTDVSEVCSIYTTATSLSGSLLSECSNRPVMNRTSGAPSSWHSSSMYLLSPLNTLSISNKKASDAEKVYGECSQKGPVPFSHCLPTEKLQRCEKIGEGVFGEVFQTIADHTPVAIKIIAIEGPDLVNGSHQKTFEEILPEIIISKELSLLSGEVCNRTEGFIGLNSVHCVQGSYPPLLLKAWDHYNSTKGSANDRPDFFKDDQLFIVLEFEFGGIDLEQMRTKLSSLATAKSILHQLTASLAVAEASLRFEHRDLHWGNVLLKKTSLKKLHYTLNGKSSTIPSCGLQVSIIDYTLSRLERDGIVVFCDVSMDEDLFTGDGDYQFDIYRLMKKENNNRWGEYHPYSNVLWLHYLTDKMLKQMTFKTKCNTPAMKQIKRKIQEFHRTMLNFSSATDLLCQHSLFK
The note with it: protein GSG2; average of three replicates. In a few lines: as §1

The target in experiment [10] is T10, ~100 representative kinases (Homo sapiens, UniProt Q86V86).
T10 construct: Recombinant protein kinase domains with a concentration of 2 μM
The note with it: protein PIM3; average of three replicates. In a few lines:
as §1

The target in experiment [11] is T11, ~100 representative kinases (Homo sapiens, UniProt P19784).
T11 construct: Recombinant protein kinase domains with a concentration of 2 μM
The settings on record: Protein CK2A2; average of three replicates. In short, it runs like this:
as §1

The target in experiment [12] is T12, ~100 representative kinases (Homo sapiens, UniProt Q13043).
T12 construct: Recombinant protein kinase domains with a concentration of 2 μM
T12 sequence (Q13043 1-487): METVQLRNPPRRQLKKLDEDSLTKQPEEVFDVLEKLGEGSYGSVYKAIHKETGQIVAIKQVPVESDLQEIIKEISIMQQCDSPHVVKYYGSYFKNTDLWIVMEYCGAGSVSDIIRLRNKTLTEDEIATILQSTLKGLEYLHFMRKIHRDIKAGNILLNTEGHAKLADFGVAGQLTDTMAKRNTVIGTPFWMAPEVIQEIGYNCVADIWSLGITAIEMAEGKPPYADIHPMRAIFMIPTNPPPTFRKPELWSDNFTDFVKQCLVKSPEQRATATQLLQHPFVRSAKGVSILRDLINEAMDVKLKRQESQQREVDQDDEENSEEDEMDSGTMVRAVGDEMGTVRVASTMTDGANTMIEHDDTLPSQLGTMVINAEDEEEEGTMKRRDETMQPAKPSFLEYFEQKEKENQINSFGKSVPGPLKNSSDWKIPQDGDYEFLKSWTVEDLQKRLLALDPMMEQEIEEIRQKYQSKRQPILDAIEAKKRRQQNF
The note with it: Protein STK4; DSF; average of three replicates. In a few lines:
as §1

The target in experiment [13] is T13, ~100 representative kinases (Homo sapiens, UniProt Q15418).
T13 construct: Recombinant protein kinase domains with a concentration of 2 μM
The settings on record: Protein RPS6KA1; DSF; average of three replicates. In short, it runs like this:
as §1

Experiment [14] deals with T14, ~100 representative kinases (Homo sapiens, UniProt O96017).
T14 construct: Recombinant protein kinase domains with a concentration of 2 μM
The note with it: Protein CHEK2; average of three replicates. In short, it runs like this: as §1

Experiment [15] has as its target T15, ~100 representative kinases (Homo sapiens, UniProt Q2M2I8).
T15 construct: Recombinant protein kinase domains with a concentration of 2 μM
The note with it: Protein AAK1; average of three replicates. In short, it runs like this: as §1

T11 sequence (P19784 whole entry, the tested form may be a part): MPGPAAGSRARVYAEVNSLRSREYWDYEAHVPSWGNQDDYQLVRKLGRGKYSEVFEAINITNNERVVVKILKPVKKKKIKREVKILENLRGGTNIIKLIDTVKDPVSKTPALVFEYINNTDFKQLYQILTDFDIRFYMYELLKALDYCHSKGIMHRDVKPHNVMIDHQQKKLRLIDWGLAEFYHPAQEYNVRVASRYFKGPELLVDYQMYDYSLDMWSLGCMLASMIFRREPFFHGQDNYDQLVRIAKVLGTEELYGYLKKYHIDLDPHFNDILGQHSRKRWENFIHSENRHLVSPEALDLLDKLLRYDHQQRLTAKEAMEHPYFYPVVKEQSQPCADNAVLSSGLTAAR
T7 sequence (O94804 whole entry, the tested form may be a part): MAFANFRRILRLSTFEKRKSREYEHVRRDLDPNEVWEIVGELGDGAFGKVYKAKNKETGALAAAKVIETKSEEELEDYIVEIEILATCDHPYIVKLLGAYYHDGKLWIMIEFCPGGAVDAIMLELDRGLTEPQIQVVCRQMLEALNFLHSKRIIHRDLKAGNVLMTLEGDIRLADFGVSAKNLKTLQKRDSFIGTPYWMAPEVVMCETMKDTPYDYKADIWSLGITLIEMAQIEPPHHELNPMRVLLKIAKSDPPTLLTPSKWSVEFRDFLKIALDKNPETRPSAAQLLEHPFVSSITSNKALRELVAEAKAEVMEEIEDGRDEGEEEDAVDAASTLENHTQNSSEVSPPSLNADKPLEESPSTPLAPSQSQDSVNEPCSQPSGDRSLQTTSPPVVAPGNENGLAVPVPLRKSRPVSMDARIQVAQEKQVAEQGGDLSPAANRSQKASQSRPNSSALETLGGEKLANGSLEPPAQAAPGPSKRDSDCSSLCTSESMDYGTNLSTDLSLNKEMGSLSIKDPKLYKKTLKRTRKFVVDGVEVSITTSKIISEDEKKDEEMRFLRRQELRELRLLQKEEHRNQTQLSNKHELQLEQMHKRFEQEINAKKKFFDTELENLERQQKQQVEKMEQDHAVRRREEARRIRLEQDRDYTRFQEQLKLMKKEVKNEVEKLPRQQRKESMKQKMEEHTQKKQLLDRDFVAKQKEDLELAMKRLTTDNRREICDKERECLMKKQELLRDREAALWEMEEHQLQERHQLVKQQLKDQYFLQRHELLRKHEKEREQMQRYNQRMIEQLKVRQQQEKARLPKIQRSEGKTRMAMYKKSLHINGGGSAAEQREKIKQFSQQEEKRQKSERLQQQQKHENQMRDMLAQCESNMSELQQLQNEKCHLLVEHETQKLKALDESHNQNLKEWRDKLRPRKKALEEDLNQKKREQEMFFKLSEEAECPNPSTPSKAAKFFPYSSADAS
T4 sequence (O15075 whole entry, the tested form may be a part): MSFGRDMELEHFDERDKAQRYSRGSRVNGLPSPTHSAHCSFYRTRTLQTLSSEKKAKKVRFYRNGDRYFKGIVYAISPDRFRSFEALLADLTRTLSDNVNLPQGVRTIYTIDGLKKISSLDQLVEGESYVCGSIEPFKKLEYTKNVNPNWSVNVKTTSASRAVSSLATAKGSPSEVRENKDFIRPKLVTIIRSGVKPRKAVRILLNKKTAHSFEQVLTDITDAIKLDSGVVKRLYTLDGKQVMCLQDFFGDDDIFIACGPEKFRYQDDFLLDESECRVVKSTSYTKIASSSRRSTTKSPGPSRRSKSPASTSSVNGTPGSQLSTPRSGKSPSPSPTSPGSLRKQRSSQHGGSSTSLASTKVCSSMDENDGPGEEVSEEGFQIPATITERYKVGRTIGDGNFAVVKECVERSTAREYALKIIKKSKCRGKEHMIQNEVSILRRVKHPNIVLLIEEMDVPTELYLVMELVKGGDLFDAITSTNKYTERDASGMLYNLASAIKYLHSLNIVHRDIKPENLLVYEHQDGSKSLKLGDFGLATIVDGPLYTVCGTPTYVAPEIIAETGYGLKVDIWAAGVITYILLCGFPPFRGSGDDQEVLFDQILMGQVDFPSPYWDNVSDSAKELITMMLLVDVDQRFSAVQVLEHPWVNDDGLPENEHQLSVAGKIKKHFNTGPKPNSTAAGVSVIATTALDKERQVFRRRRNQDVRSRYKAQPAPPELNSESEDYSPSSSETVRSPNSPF
T5 sequence (O43293 whole entry, the tested form may be a part): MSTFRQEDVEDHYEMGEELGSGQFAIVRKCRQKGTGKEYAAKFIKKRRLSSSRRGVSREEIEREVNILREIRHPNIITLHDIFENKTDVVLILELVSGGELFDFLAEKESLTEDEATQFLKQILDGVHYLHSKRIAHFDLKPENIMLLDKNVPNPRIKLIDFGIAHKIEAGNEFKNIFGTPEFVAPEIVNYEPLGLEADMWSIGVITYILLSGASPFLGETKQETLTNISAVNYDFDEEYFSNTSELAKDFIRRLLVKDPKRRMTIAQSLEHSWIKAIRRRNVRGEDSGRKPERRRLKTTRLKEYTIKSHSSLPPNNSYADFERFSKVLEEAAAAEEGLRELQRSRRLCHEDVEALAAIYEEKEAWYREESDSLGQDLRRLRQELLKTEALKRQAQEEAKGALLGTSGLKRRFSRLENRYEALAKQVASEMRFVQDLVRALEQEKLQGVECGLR
T1 sequence (Q13557 whole entry, the tested form may be a part): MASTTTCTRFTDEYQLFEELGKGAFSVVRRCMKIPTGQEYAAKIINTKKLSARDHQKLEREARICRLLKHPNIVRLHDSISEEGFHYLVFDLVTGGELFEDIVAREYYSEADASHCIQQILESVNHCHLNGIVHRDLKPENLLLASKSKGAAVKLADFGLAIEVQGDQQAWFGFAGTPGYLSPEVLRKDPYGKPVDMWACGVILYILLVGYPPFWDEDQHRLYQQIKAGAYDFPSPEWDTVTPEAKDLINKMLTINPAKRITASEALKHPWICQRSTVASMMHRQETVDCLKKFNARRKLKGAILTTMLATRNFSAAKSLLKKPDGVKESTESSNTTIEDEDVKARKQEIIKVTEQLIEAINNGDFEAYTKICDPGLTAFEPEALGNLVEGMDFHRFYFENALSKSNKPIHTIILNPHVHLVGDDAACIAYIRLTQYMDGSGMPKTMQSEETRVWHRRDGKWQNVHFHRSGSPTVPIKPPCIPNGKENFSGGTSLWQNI
T3 sequence (P53779 whole entry, the tested form may be a part): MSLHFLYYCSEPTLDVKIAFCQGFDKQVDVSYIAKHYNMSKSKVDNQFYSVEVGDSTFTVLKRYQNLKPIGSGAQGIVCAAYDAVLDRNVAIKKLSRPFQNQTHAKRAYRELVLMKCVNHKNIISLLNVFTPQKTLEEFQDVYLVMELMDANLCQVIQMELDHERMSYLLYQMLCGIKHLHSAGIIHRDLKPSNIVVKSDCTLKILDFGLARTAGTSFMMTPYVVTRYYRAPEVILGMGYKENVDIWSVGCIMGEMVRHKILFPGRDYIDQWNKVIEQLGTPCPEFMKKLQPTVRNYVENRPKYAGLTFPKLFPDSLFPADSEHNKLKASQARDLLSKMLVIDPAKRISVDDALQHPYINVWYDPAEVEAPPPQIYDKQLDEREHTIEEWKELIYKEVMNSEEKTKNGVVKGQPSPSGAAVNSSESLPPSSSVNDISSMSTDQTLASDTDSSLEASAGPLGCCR
T6 sequence (P45984 whole entry, the tested form may be a part): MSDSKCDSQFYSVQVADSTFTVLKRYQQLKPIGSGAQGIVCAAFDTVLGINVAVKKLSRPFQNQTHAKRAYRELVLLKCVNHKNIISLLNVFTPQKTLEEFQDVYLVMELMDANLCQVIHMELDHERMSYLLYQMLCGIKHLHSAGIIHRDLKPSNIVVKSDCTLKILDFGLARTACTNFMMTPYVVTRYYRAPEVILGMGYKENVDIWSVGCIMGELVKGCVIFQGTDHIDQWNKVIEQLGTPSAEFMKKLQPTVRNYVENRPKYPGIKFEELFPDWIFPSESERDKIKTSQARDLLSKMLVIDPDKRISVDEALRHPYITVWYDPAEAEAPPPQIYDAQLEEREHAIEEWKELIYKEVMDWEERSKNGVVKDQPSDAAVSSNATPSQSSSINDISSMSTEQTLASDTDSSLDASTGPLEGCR
T15 sequence (Q2M2I8 whole entry, the tested form may be a part): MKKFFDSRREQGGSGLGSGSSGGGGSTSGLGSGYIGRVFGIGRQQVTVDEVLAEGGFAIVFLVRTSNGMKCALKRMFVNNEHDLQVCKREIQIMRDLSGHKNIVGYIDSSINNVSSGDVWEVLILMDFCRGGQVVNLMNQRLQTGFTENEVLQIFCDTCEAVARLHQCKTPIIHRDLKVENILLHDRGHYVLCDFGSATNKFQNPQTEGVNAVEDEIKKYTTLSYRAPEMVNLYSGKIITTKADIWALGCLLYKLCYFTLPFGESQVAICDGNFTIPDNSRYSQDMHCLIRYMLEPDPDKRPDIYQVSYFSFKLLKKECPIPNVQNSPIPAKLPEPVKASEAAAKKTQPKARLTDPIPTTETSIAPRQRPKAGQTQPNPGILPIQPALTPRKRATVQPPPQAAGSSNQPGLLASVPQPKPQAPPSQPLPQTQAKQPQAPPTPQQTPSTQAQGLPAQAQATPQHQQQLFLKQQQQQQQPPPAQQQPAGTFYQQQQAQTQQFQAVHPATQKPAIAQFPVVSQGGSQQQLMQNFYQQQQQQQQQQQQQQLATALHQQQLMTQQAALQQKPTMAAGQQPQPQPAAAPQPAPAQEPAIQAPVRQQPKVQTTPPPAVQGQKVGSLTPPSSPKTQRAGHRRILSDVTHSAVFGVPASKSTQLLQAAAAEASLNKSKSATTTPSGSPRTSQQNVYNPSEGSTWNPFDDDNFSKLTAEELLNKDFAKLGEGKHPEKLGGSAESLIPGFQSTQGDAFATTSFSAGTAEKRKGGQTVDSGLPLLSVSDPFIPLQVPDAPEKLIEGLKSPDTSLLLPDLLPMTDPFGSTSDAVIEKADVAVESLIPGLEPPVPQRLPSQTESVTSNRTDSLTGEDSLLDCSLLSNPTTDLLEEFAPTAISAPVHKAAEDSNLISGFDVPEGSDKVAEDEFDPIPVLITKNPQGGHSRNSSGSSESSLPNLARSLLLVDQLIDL

For the compound `Cn1cc(-c2c[nH]c3ncnc(N4CCOCC4)c23)cc1C#N` [PFE-360], the dTm is 0.51 K in experiment [1]; -2.21 K in experiment [2]; -1.02 K in experiment [3]; 0.62 K in experiment [4]; 1.10 K in experiment [5]; 0.17 K in [6]. Also, the dTm in [7] is 7.58 K; in experiment [8], 5.72 K; in experiment [9], 2.32 K; in [10], 0.58 K; in experiment [11] it was 0.26 K; in experiment [12], 4.12 K. For the same compound, the figures for the dTm in experiment [13], in experiment [14] and in experiment [15] were 1.09 K, 3.22 K and 8.34 K, respectively.
Turning to `CNC(=O)c1cc(Oc2ccc(NC(=O)Nc3cc(C(C)(C)C)nn3-c3ccc4ncccc4c3)c(F)c2)ccn1` [Rebastinib, reference compound], the dTm in [1] came out at 2.16 K; in experiment [2], 6.81 K; in experiment [3], 3.02 K; in [4] it was 3.67 K; in experiment [5], 5.73 K; in experiment [6], 9.78 K. Further, the dTm is 16.27 K in experiment [7]; 0.63 K in experiment [8]; 0.28 K in experiment [9]; 6.29 K in experiment [10]; 1.06 K in experiment [11]; 7.33 K in experiment [12]. Moreover, the dTm came to 1.31 K in [13], 10.49 K in experiment [14] and 0.20 K in [15].
